Laboratory results: patent US11213666B2, “Method for administering a medicament suitable for treating a migraine or cluster headache” (SORRENTO THERAPEUTICS, INC., priority 2016, dated 2022)
Read-outs that look alike come from different tables or passages of the source.

Tests used:
[1] = Porcine pharmacokinetic study of sumatriptan delivered by the microneedle fluid delivery apparatus (FIG. 50); assay type: in vivo, Yorkshire pigs; conditions: 20 mg via fluid delivery apparatus (microneedles), pig, blood serum; compared with nasal, oral and Zecuity administration
Protocol: In reference to FIG. 50, shown is the time versus concentration profile of sumatriptan as administered according to the methods and devices disclosed herein. An ideal profile (identified as “Target PK Profile”) is calculated based on the therapeutic efficiency of the medicament.
Thirty five 80 kg castrated or female Yorkshire pigs were placed under anesthesia and a catheter was inserted into the right or left jugular vein. After the catheter was placed, the pigs were kept under anesthesia and placed on their backs. The ventral region was shaved and covered with a depilatory cream (Nair Sensitive®) for 8 minutes. The cream was removed and the area washed with alcohol. The fluid delivery apparatus was placed against the skin with an adhesive and the microneedles (100 total) were inserted at a post traveling velocity of 6 m/s. A 20 mg dose of sumatriptan from the fluid deliver apparatus was delivered while the pig was under anesthesia. 3 mL blood samples were withdrawn at each time point and spun down to recover the blood serum.

[2] = cited from earlier work
[3] = nasal administration, compared with the actual profile of the fluid delivery apparatus (FIG. 49 vs FIG. 50)
[4] = subcutaneous administration, compared with the other routes of administration

## CNS(=O)(=O)Cc1ccc2[nH]cc(CCN(C)C)c2c1.O=C(O)CCC(=O)O [sumatriptan, 1-[3-[2-(dimethylamino)ethyl]-1H-indol-5-yl]-N-methylmethanesulfonamide butanedioic acid]
[1]
  AUC: significantly improved
  Css: significantly improved
  Tmax: significantly improved
[2]; [3]
  AUC: significantly lower
  Css: significantly lower
[2]; oral administration, compared with the actual profile of the fluid delivery apparatus
  Tmax: much slower
[2]; subcutaneous administration, as time progresses
  Css: significantly lower
[2]; [4]
  Cmax: higher
  Tmax: much faster
